“And” between values parts separate entries of the source, which are not always exact repeats. Equal values may be shown once.
How the values were obtained:
[1] = excess molar enthalpy (molar enthalpy of mixing); xn = mol fraction of the nth substance listed; conditions: 101.32 kPa, Liquid, Flow calorimetry
[2] = Liquid; for mass density: 101.33 kPa

C=C(C)CC(C)(C)C [2,4,4-trimethyl-1-pentene] + CCC(C)O
[1], 298.15 K
Conditions | excess molar enthalpy [kcal/mol]
x2 = 0.0544 | 0.13
x2 = 0.0832 | 0.159
x2 = 0.1597 | 0.202
x2 = 0.2314 | 0.227
x2 = 0.2987 | 0.243
x2 = 0.3621 | 0.251
x2 = 0.4217 | 0.252
x2 = 0.4781 | 0.249
x2 = 0.5313 | 0.241
x2 = 0.5818 | 0.229
x2 = 0.6296 | 0.213
x2 = 0.675 | 0.196
x2 = 0.7182 | 0.177
x2 = 0.7593 | 0.156
x2 = 0.7986 | 0.134
x2 = 0.836 | 0.112
x2 = 0.8717 | 0.0891
x2 = 0.9059 | 0.0665
x2 = 0.9386 | 0.0437
x2 = 0.9699 | 0.0219

CC(C)(C)O [2-methylpropan-2-ol]
[2]
Conditions | mass density [kg/m3] | vapor or sublimation pressure [kPa]
303.15 K | 775.5 | –
355.13 K | – | 100.6

CCC(C)O (configuration not stated) [butan-2-ol]
[2]
Conditions | mass density [kg/m3] | vapor or sublimation pressure [kPa]
298.15 K | 802.4 | –
372.14 K | – | 100.5

C=C(C)CC(C)(C)C [2,4,4-trimethyl-1-pentene] + CC(C)(C)O
[1], 300.15 K
Conditions | excess molar enthalpy [kcal/mol]
x2 = 0.0529 | 0.125
x2 = 0.0811 | 0.151
x2 = 0.1559 | 0.188
x2 = 0.2264 | 0.208
x2 = 0.2928 | 0.218
x2 = 0.3555 | 0.225
x2 = 0.4148 | 0.227
x2 = 0.471 | 0.228
x2 = 0.5241 | 0.226
x2 = 0.5242 | 0.225
x2 = 0.5747 | 0.222
x2 = 0.6229 | 0.216
x2 = 0.6687 | 0.207
x2 = 0.7124 | 0.195
x2 = 0.7541 | 0.18
x2 = 0.7939 | 0.161
x2 = 0.832 | 0.141
x2 = 0.8685 | 0.118
x2 = 0.9034 | 0.0915
x2 = 0.9369 | 0.0626
x2 = 0.9691 | 0.0326

C=C(C)CC(C)(C)C [2,4,4-trimethyl-1-pentene]
[2]
Conditions | mass density [kg/m3] | vapor or sublimation pressure
298.15 K | 711.3 | –
374.34 K | – | 101.4 kPa and 101.3 kPa
